Tests used:
[1] = test system: Mouse primary microglia IL-1β; experiment: Inflammasome assay in primary mouse postnatal microglia using LPS/0 mM extracellular K+ (IL-1β release); type: cell-based; conditions: 100 ng/mL LPS 3.5 h, compound 30 min, K+ free buffer 2 h, IL-1β levels by MesoScale
Procedure: 3. Inflammasome Assay in Primary Mouse Postnatal Microglia Using LPS/0 mM Extracellular K^+
Newly shaken mouse microglia cells were added to a 96-well plate and left to adhere overnight. After this time, 100 ng/mL LPS was added to each well and incubated at 37° C. for 3.5 hours, at which point compound addition was undertaken and plates incubated at 37° C. for an additional 30 minutes. After this time, the medium in each well was removed and replaced with K^+ free buffer and the plates then incubated for an additional 2 hours at 37° C. Measurement of IL-1β levels in the sample wells was undertaken using MesoScale Discovery™ MESO QuickPlex SQ 120 and IL-1β antibodies from mouse IL-1β DuoSet ELISA kit (R&D System, DY401).

human KCNK13 = target: T1, human KCNK13 (Homo sapiens, UniProt Q9HB14); experiment: KCNK13 antagonist activity, thallium flux FLIPR assay in HEK 293 cells stably expressing human KCNK13; type: cell-based; conditions: HEK 293 cells stably expressing human KCNK13, Tl+ sensitive dye, compound 15 min before thallium sulfate, ten point curves; read-out: hKCNK13 IC50
T1 construct: expressed in transfected cells
T1 sequence (Q9HB14 1-408): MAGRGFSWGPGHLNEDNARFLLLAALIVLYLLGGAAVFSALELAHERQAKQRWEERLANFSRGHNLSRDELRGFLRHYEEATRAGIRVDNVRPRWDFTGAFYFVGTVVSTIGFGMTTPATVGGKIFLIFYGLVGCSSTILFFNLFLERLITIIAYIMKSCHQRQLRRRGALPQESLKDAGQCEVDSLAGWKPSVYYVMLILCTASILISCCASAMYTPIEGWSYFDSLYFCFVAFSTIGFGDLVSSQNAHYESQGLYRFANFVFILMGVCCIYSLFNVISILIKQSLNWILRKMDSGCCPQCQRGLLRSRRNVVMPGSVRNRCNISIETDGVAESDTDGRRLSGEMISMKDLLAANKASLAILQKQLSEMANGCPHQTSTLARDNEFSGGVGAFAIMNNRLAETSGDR
Outline: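 HEK 293 cells stably expressing human KCNK13, loaded with Tl+-sensitive dye 1 h at room temperature, then exposed to compound for 15 min before thallium sulfate stimulus. Tl+ influx read by FLIPR fluorescence; IC50 from ten-point half-log curves starting at 100 µM, each point averaging two wells.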

IC50 [1] [nM]	IC50 (human KCNK13) [nM]	Compound
≤ 150	≤ 50	COc1ncc(Cl)cc1C(=O)N(C)Cc1cccc(F)c1 [Example 24, 5-chloro-N-(3-fluorobenzyl)-2-methoxy-N-methylnicotinamide]
≤ 600	≤ 500	COc1ncc(F)cc1C(=O)N(C)C1CCc2ccccc21 (single isomer, unassigned) [Example 16, N-(2,3-dihydro-1H-inden-1-yl)-5-fluoro-2-methoxy-N-methylnicotinamide]
≤ 300	≤ 200	COc1ncc(F)cc1C(=O)N(C)Cc1ccc(F)cc1F [Example 39, N-(2,4-difluorobenzyl)-5-fluoro-2-methoxy-N-methylnicotinamide]
–	≤ 200	CN(Cc1cccc(Cl)c1)S(=O)(=O)c1cc(F)cnc1OC(F)F [Example 108, N-(3-chlorobenzyl)-2-(difluoromethoxy)-5-fluoro-N-methylpyridine-3-sulfonamide]
–	≤ 500	COc1ncc(F)cc1C(=O)N(C)C1CCc2ccc(F)cc21 (single isomer, unassigned) [Example 10, 5-fluoro-N-(6-fluoro-2,3-dihydro-1H-inden-1-yl)-2-methoxy-N-methylnicotinamide]
–	≤ 1000	C[C@H](c1cccc(F)c1)N(C)S(=O)(=O)c1cc(F)cnc1OC(F)F [Example 104, (R)-2-(difluoromethoxy)-5-fluoro-N-(i-(3-fluorophenyl)ethyl)-N-methylpyridine-3-sulfonamide]
–	≤ 500	COc1ncc(F)cc1C(=O)N(C)C(C)c1ccccc1F (single isomer, unassigned) [Example 6, 5-fluoro-N-(1-(2-fluorophenyl)ethyl)-2-methoxy-N-methylnicotinamide]

Reference: US20260167632A1, “NICOTINAMIDE DERIVATIVES FOR USE IN TREATING DISORDERS ASSOCIATED WITH KCNK13 ACTIVITY” (Cerevance, Inc., priority 2022, published 2026)
